Test results published in publication PMC6934184, “Selective DNA-PKcs inhibition extends the therapeutic index of localized radiotherapy and chemotherapy” (The Journal of Clinical Investigation, 2019).

Biological target: T1, MAP3K14 (NIK) (Homo sapiens, UniProt Q99558)
T1 construct: purchased Thermo Fisher Scientific (Life Technologies) SelectScreen
Experiment: SelectScreen LanthaScreen
Format: binding
Settings: read-out: % displacement
In short: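 NU5455 was profiled across the SelectScreen Broad panel of kinase activity and binding assays. Z'LYTE reactions such as CSF1R ran at apparent Km ATP, while the Adapta CAMK1 assay used ATP listed as 10. Values are given as percent.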

T1 sequence (Q99558 whole entry): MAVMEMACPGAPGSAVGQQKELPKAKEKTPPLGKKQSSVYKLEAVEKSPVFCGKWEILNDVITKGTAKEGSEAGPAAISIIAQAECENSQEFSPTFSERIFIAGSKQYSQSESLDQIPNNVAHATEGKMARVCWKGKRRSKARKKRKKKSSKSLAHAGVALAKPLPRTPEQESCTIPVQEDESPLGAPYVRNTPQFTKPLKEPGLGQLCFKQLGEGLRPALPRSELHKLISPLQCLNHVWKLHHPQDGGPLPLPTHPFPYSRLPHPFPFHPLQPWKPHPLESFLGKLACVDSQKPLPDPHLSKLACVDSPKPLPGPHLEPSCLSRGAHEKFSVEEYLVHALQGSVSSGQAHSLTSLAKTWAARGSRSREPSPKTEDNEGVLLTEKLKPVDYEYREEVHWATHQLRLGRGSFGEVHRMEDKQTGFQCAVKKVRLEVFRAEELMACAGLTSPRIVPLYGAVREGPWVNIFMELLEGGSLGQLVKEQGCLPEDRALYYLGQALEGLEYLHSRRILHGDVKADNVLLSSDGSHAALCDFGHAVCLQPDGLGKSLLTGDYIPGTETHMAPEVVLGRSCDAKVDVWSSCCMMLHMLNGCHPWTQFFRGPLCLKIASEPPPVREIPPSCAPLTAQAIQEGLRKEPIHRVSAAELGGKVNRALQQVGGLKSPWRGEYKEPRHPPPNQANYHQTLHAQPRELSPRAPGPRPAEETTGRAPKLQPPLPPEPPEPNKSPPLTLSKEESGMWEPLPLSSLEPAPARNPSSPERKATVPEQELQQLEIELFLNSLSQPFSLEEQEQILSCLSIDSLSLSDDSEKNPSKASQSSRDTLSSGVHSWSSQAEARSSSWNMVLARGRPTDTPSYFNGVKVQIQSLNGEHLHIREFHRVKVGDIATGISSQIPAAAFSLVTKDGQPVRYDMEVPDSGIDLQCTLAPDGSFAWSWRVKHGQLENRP

CN(C(=O)CN1CCOCC1)c1ccc2sc3c(-c4cccc5c(=O)cc(N6CC7CCC(C6)O7)oc45)cccc3c2c1 [NU5455]
inhibition at 1 µM: -0.5%
